Measurements reported in US20150231109A1, “COMBINATIONS (CATECHINS AND METHOTREXATE) FOR USE IN THE TREATMENT OF MELANOMAS” (UNIVERSIDAD DE MURCIA, priority 2012, published 2015).
Like-named read-outs stand apart in the source and are kept apart here. Marks after values point to notes of the source that are not given here.

Experiments:
SK-MEL-28 melanoma cells = experiment: HPLC/MS analyses of MTX, TMECG-QM and DHF in whole cell extracts; assay type: cell-based, human; details: SK-MEL-28 whole cell extracts, 24 h, MTX 1 μM and/or TMECG 10 μM
Procedure: By way of example, the present inventors have shown that an active agent, such as MTX, may be used to increase TYR expression, thereby increasing the conversion of a catechin to its quinone methide form. The inventors have undertaken HPLC analyses of MTX, TMECG-QM, and DHF in whole cell extracts of SK-MEL-28 melanoma cells that were subjected to MTX (1 μM) and TMECG (10 μM) individual and combined treatments (see Table 1).

MITF = experiment: ChIP assay, occupancy of MITF on TYR and Pmel17 genes in SK-MEL-28 cells; assay type: cell-based; details: Homo sapiens, SK-MEL-28, MTX 4 h
Procedure: F, Chromatin immunoprecipitation on TYR and Pmel17 genes of control and MTX-treated (4 h, 1 μM) SK-MEL-28 cells with qRT-PCR after immunoprecipitation with IgG, or MITF and HDAC3 antibodies.
The ChIP assay was performed with the Magna ChIP™ G kit from Millipore according to the manufacturer's instructions. […] The cross-linked chromatin was then used for immunoprecipitation with MITF antibody, HDAC3 antibody (positive control) or mouse IgG (negative control). DNA from lysates prior to immunoprecipitation was used as positive input controls.

TYR = TYR mRNA and protein expression in melanoma cell lines; assay type: cell-based, human; details: MTX 1 μM; SK-MEL-28 and multiple melanoma cell lines
Procedure: H, Semiquantitative RT PCR of TYR, TYRP1, Pmel17, MART1, and Rab27a mRNA. SK-MEL-28 and siMITF-SK-MEL-28 cells were treated for 5 h with 1 μM MTX. mRNA levels are presented relative to β-actin mRNA and compared to their expression levels in untreated cells (1-fold).
mRNA extraction, cDNA synthesis, and conventional and qRT-PCR were performed under standard conditions. Primers were designed using Primer Express version 2.0 software (Applied Biosystems, Foster City, Calif.) and synthesized by Invitrogen (Barcelona, Spain).
Whole cell lysates were collected by adding SDS sample buffer. After extensive sonication, samples were boiled for 10 min and subjected to SDS-PAGE. Proteins were then transferred to nitrocellulose membranes and analyzed by immunoblotting (ECL Plus, GE Healthcare, Barcelona, Spain).

SK-MEL-28 cells = experiment: Apoptosis assay (cytoplasmic histone-associated DNA fragmentation ELISA), SK-MEL-28; assay type: cell-based, human; details: SK-MEL-28, MTX alone
Procedure: FIGS. 2A-N. MTX and TMECG combination therapy induces apoptosis via dTTP depletion and DNA-damage. A, Intracellular accumulation of TMECG-QM in SK-MEL-28 treated with TMECG or MTX/TMECG for 24 h. B, Proliferation assays performed of control or MTX/TMECG-treated (10 μM/1 μM) SK-MEL-28 cells. C, Quantification of effects of MTX/TMECG treatment on SK-MEL-28 cells (*P<0.05 with respect to TMECG-treated cells). For time course assay MTX (1 μM) and TMECG (10 μM) were used. D, dNTP quantification in melanoma cells subjected to indicated treatments (*P<0.05). […] K, quantification of γH2AX foci in SK-MEL-28 cells treated with MTX (1 μM) and/or TMECG (10 μM), or X-rays. […] N, Cell cycle profile determined by flow cytometry of SK-MEL-28 cells treated with a sublethal dose of MTX/TMECG. […]
The induction of apoptosis was assessed by performing cytoplasmic histone-associated DNA fragmentation using a kit from Roche Diagnostics (Barcelona, Spain). […] The amount of nucleosomes is photometrically quantified at 405 nm by the peroxidase activity retained in the immunocomplexes. Apoptosis was defined as the specific enrichment of mono- and oligonucleosomes in the cytoplasm and was calculated by dividing the absorbance of treated samples by the absorbance of untreated samples after correcting for the number of cells. […]

[1] = tested on: B16/F10 primary splenic tumors; experiment: Primary spleen tumors after intrasplenic injection of luciferase-tagged B16/F10 cells; assay type: in vivo, mouse
Procedure: C, Luciferase imaging of control and MTX/TMECG-treated mice 12 days post-tumor cell injection. Beetle luciferin (120 mg/kg of mouse) was injected intraperitoneally. The values (means±s.d.) are representative of three independent experiments. *P=0.007; **P=0.002. […] Xenograft tumors treated with DMSO (vehicle) or MTX/TMECG (1 mg/kg/day and 50 mg/kg/day, respectively) over 14-days. […] Representative images taken from two independent experiments (n=5 for each experiment). Scale bar=200 μm and is applicable to both panels. I, B16/F10 melanoma cells, expressing a luciferase reporter, were injected subcutaneously to mice. Mice were divided in two groups (n=7) and treated with vehicle (DMSO) or MTX/TMECG (1 mg/kg/day and 10 mg/kg/day, respectively) over 21-days. Then, tumors were pooled and dissociated. B16/F10 cells extracted from tumors were examined for their sensitivity to the MTX/TMECG combination (1 μM and 10 μM, respectively) using quantification of the luminescence signal (left panel). […] Scale bar refers to all panels. […] Mice were treated with vehicle, MTX (1 mg/kg/day), and/or TMECG (50 mg/kg/day). […] Scale bar refers to all panels.
A, Luciferase imaging of vehicle (control), MTX, and/or TMECG-treated mice 12 days post-tumor cell injection. Firefly luciferin (120 mg/kg of mouse) was injected intraperitoneally. The values are representative of three independent experiments. […] The number of cells was estimated by extrapolation of the experimental luciferase signal to calibration curves. A straight line with a good linear correlation coefficient (0.998) was obtained by plotting luciferase signal vs number of B16/F10-luc2 cells. Treatment of mice (n=6) started 24 hr after tumor induction (Day 1). For all experiments: *p<0.05 with respect to control mice; #p<0.05 with respect to individual MTX or TMECG treatments.

`CN(Cc1cnc2nc(N)nc(N)c2n1)c1ccc(C(=O)N[C@@H](CCC(=O)O)C(=O)O)cc1` [MTX, methotrexate] was tested, and the MTX intracellular concentration (SK-MEL-28 melanoma cells) was <0.001* pmol/10^6 cells, the receptor occupancy at 1 µM (MITF; untreated cells 1.5%, read-out: occupancy of MITF on the TYR promoter with respect to an input control) was 25.2% and the receptor occupancy at 1 µM (MITF; untreated cells 5.4%, read-out: occupancy of MITF on the promoter/enhancer of the Pmel17 gene with respect to an input control) was 45.4%. The “mRNA expression of MITF differentiation target TYR and TYR protein expression” value (TYR) was “increased”, the induction of apoptosis (SK-MEL-28 cells) was “did not induce apoptosis” and the “necrotic areas in splenic tumors” value ([1]; 14 days treatment, MTX 1 mg/kg/day and/or TMECG 50 mg/kg/day) was 4%±2%. The “effect on in vivo luciferase signal” value ([1]; MTX or TMECG alone, 12 days post-tumor cell injection) was “around 2 fold”.
